Like-named read-outs stand apart in the source and are kept apart here.
Tests used:
HBeAg = assay: HBeAg, multiplex assay, HBV-infected PHH; assay type: cell-based; settings: Hepatitis B virus
Experimental: Fresh primary human hepatocytes (PXB-PHH) harvested from humanized mice (uPA/SCID mice)—herein called PHH—were obtained from PhoenixBio Co., Ltd (Japan). Cells were seeded on a collagen I-coated plate at the following cell density: 35,000 cells/well (384-well), 70,000 cells/well (96-well), or, 400,000 cells/well (24-well) in modified hepatocyte clonal growth medium (dHCGM). dHCGM is a DMEM medium containing 100 U/ml Penicillin, 100 μg/ml Streptomycin, 20 mM Hopes, 44 mM NaHCO3, 15 μg/ml L-proline, 0.25 μg/ml insulin, 50 nM Dexamethazone, 5 ng/ml EGF, 0.1 mM Asc-2P, 2% DMSO and 10% FBS (Ishida et al., 2015). Cells were cultured at 37° C. incubator in a humidified atmosphere with 5% CO2. Culture medium was replaced 24 h post-plating and every 2 days until harvest.
Following 4 day of maturation with 1 μM MB-1, HLC were incubated with HBV (purified from CHB individuals) at multiplicity of infection (MOI) 10-40 without PEG for 24 hr; virus inoculum was removed the following day. […] Compound treatment in HLC and PHH was started at day 3 post infection. Compound (in powder) was dissolved in DMSO; the final concentration of DMSO added to cells is 1%. Fresh compound was replenished every 2 day until cells were harvested at day 10 (PHH), or day 14 (HLC). Compound effect on HBV and cellular toxicity was measured by multiplex assay (HBsAg, HBeAg, albumin), branched DNA (pgRNA), or digital PCR (cccDNA) and depicted as % of inhibition compared to DMSO control. Graphs were prepared using Spotfire software.
A custom, Luminex-based multiplex assay that simultaneously measured HBeAg, albumin, and HBsAg was developed by Radix BioSolutions (Georgetown, Tex.). This is a sandwich immunoassay; each capture antibody was coupled with xMAP™ Luminex magnetic beads. The dynamic ranges of analyte detection are as follows: HBeAg (1-316 ng/ml), albumin (3.1-10,000 ng/ml), and HBsAg (0.1-100 ng/ml) with coefficient variant (CV) […]. Samples were read on FlexMAP 3D (Luminex) and analyzed by Genedata software.

HBV DNA = HBV DNA in culture medium of HBV-infected PHH; assay type: cell-based; settings: Hepatitis B virus
Text: FIG. 8: Establishment of dPCR assay for cccDNA quantification. […] A 3.2-kb, linearized plasmid HBV is used as a standard curve for relative quantification of HBV DNA by TaqMan-PCR. […] (B) Testing primer & PCR specificity and removal of excess RC-DNA. In contrast to TaqMan-PCR (relative quantification method), digital PCR (dPCR) is an absolute quantification method without the need of standard curve. […] First step—Testing primer and PCR specificity. Serum-derived HBV (contains RC-DNA, devoid of cccDNA) was used as a DNA template for dPCR using 2 sets of primers (for HBV core and cccDNA region) (Werle-Lapostolle et al., 2004). Samples were amplified by dPCR on QuantStudio 12K Flex Real-Time PCR System (AB); 4 subarrays (256 through-holes) were used for each sample. […] Second step—Removal of excess RC-DNA. PHH seeded in 96-well were infected with HBV. At day 6 pi, cell lysates were digested with Plasmid safe, ATP-dependent, DNAse (PSAD), T5 exonuclease, or, T5 exonuclease followed by EcoRI, for 1 hr at 37° C. Samples were amplified by dPCR using cccDNA primers on QuantStudio 12K Flex Real-Time PCR System (AB); 4 subarrays (256 through-holes) were used for each sample. […] Fresh medium and compound was replenished every 2 day. At day 10 pi, culture media were harvested and measured for HBV DNA, HBsAg, and HBeAg. Albumin was used as a surrogate of in vitro tox marker. Cells were lysed and treated with T5 exonuclease, cccDNA was then measured by dPCR on QuantStudio 12K Flex Real-Time PCR System (AB); 4 subarrays (256 through-holes) were used for each sample. […] Cells were treated with compounds at the indicated concentrations starting from day 3 post infection (patient-derived HBV, GT D). Fresh medium and compound was replenished every 2 day. Cells were harvested at day 10 pi; viral markers and albumin were measured from culture medium.
HBV from sera of CHB individuals were purified using OptiPrep™ (Axis-Shield, Norway) density gradient. Briefly, OptiPrep™ stock solution (60%) was diluted to 50% and 10% in PBS; equal volume of each solution was then added into SW41 tubes (BD Biosciences). Linear gradient was performed by placing the tubes on Gradient Master 108™ (Biocomp) at setting: 800, 25 rpm for 30″. Two hundred microliter (200 μl) of serum was overlaid on the top of gradient and samples were centrifuged at 100,000×g for 2 hours at 4° C. […] Fractions containing the peak of HBV DNA were pooled and used as virus inoculum for all infection experiments. All fractions were stored at −80° C. until used.
Fresh primary human hepatocytes (PXB-PHH) harvested from humanized mice (uPA/SCID mice)—herein called PHH—were obtained from PhoenixBio Co., Ltd (Japan).

O=C(NC(CO)CO)c1c[nH]c2ncc(C3CC3)nc12 [compound 7]
IC50 (HBeAg; 240 h, read-out: HBeAg IC50 (μM) Median, PHH, patient-derived HBV GT A, MOI 40, day 10 pi): 0.4 µM | IC50 (HBeAg; 240 h, read-out: HBeAg IC50 (μM) Median, PHH, patient-derived HBV GT B, MOI 40, day 10 pi): 0.31 µM | IC50 (HBeAg; 240 h, read-out: HBeAg IC50 (μM) Median, PHH, patient-derived HBV GT C, MOI 40, day 10 pi): 0.35 µM | IC50 (HBeAg; 240 h, read-out: HBeAg IC50 (μM) Median, PHH, patient-derived HBV GT D, MOI 40, day 10 pi (Table 5)): 0.31 µM | IC50 (HBeAg; read-out: HBeAg IC50 (μM) Median, PHH, HepG2.2.15-derived HBV GT D, MOI 40): 15.3 µM | IC50 (HBeAg; read-out: HBeAg IC50 (μM) Median, PHH, HepG2.2.15-derived HBV GT D, MOI 125): 15.9 µM | IC50 (HBeAg; read-out: HBeAg IC50 (μM) Median, PHH, patient-derived HBV (GT D)): 0.39 µM | IC50 (HBeAg; read-out: HBeAg IC50 (μM) Median, PHH, patient-derived HBV GT D, MOI 40 (Table 6)): 0.32 µM | IC50 (HBeAg; read-out: HBeAg IC50 (μM) Median, PHH, patient-derived HBV GT D, MOI 125): 0.57 µM | IC50 (HBeAg; read-out: HBeAg IC50s, PHH, patient-derived HBV GT A-D, range stated in text for HBsAg & HBeAg): 0.24 to 0.45 µM | IC50 (HBV DNA; 240 h, read-out: HBV DNA IC50 (μM) Median, PHH, patient-derived HBV GT A, MOI 40, day 10 pi): 0.025 µM | IC50 (HBV DNA; 240 h, read-out: HBV DNA IC50 (μM) Median, PHH, patient-derived HBV GT B, MOI 40, day 10 pi): 0.023 µM | IC50 (HBV DNA; 240 h, read-out: HBV DNA IC50 (μM) Median, PHH, patient-derived HBV GT C, MOI 40, day 10 pi): 0.02 µM | IC50 (HBV DNA; 240 h, read-out: HBV DNA IC50 (μM) Median, PHH, patient-derived HBV GT D, MOI 40, day 10 pi (Table 5)): 0.023 µM | IC50 (HBV DNA; read-out: HBV DNA IC50s, PHH, patient-derived HBV GT A-D): 0.02 to 0.025 µM

— patent US20230248723A1, “PYRROLO[2,3-B]PYRAZINE COMPOUNDS AS CCCDNA INHIBITORS FOR THE TREATMENT OF HEPATITIS B VIRUS (HBV) INFECTION” (Hoffmann-La Roche Inc., priority 2017, published 2023)
